US20260125382A1, “COMPOUNDS FOR INHIBITING OR DEGRADING CDK2 AND/OR CDK9 AND MEDICINAL USE THEREOF” (KOREA RESEARCH INSTITUTE OF CHEMICAL TECHNOLOGY, priority 2022, published 2026)

How the values were obtained:
CDK9 = molecular target: T1, CDK9 (Homo sapiens, UniProt P50750); experiment: CDK protein degradation activity (Western blotting), CDK9; type: cell-based; conditions: MDA-MB-231 cells, 16 hours, Western blot
T1 construct: endogenous in cells; host or cells: MDA-MB-231
Outline: (§1)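 Degradation is judged from CDK2 and CDK9 band intensity relative to tubulin and DMSO-treated cells, after 16 h exposure of MDA-MB-231 cells to three compound concentrations (100 nM, 1 μM, 10 μM).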

CDK2 = molecular target: T2, CDK2 (Homo sapiens, UniProt P24941); experiment: CDK protein degradation activity (Western blotting), CDK2; type: cell-based; conditions: MDA-MB-231 cells, 16 hours, Western blot
T2 construct: endogenous in cells; host or cells: MDA-MB-231
Outline: as §1

T1 sequence (P50750 whole entry): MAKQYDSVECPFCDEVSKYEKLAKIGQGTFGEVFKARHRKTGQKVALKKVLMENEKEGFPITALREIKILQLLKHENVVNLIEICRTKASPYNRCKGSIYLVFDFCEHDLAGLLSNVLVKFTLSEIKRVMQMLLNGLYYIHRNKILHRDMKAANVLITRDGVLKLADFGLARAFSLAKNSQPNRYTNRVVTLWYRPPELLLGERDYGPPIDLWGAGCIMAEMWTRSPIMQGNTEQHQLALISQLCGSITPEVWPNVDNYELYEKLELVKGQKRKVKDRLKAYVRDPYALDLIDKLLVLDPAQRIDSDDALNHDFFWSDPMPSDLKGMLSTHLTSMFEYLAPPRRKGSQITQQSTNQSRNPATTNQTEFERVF

| SMILES | Enzyme degradation CDK9 (% remaining) @ 0.1 μM (CDK9) | Enzyme degradation CDK9 (% remaining) @ 1 μM (CDK9) | Enzyme degradation CDK9 (% remaining) @ 10 μM (CDK9) | Enzyme degradation CDK2 (% remaining) @ 0.1 μM (CDK2) | Enzyme degradation CDK2 (% remaining) @ 1 μM (CDK2) | Enzyme degradation CDK2 (% remaining) @ 10 μM (CDK2) |
| --- | --- | --- | --- | --- | --- | --- |
| O=C1CC[C@H](N2C(=O)c3cc(F)c(N4CCC(CN5CCC(CCNc6ncnc7c6ncn7[C@H]6C[C@@H](NC(=O)c7c(Cl)cccc7Cl)C6)CC5)CC4)cc3C2=O)C(=O)N1 [Compound 397, 2,6-dichloro-N-((1s,3s)-3-(6-((2-(1-((1-(2-(2,6-dioxopiperidin-3-yl)-6-fluoro-1,3-dioxoisoindolin-5-yl)piperidin-4-yl)methyl)piperidin-4-yl)ethyl)amino)-9H-purin-9-yl)cyclobutyl)benzamide] | 70% | 10% | 10% | 50% | 30% | 30% |
| Cc1cccc(C(=O)NC2CC(n3cnc4c(NCc5cccc(N6CCN(C(=O)COc7cccc8c7C(=O)N([C@H]7CCC(=O)NC7=O)C8=O)CC6)c5)ncnc43)C2)n1 (stereo partly drawn) [Compound 128, N-((1s,3s)-3-(6-((3-(4-(2-((2-(2,6-dioxopiperidin-3-yl)-1,3-dioxoisoindolin-4-yl)oxy)acetyl)piperazin-1-yl)benzyl)amino)-9H-purin-9-yl)cyclobutyl)-6-methylpicolinamide] | 90% | 60% | 100% | 90% | 50% | 100% |
| CC(=O)N[C@H]1C[C@@H](n2cnc3c(NCC4CCN(CC5CCN(C(=O)CNc6ccc7c(c6)C(=O)N([C@H]6CCC(=O)NC6=O)C7=O)CC5)CC4)ncnc32)C1 [Compound 156, N-((1s,3s)-3-(6-(((1-((1-((2-(2,6-dioxopiperidin-3-yl)-1,3-dioxoisoindolin-5-yl)glycyl)piperidin-4-yl)methyl)piperidin-4-yl)methyl)amino)-9H-purin-9-yl)cyclobutyl)acetamide] | 80% | 50% | 40% | 100% | 80% | 70% |
| O=C1CC[C@H](N2C(=O)c3ccc(N4CCC(C(=O)N5CCC(CN6CCN(c7ccc(Nc8ncnc9c8ncn9C8CC(NC(=O)Cc9ccccc9)C8)cc7)CC6)CC5)CC4)cc3C2=O)C(=O)N1 (stereo partly drawn) [Compound 330, N-((1s,3s)-3-(6-((4-(4-((1-(1-(2-(2,6-dioxopiperidin-3-yl)-1,3-dioxoisoindolin-5-yl)piperidin-4-carbonyl)piperidin-4-yl)methyl)piperazin-1-yl)phenyl)amino)-9H-purin-9-yl)cyclobutyl)-2-phenylacetamide] | 0/0/0% | 0/0/0% | 0/0/0% | 60% | 60% | 40% |
| Cc1cccc(C(=O)N[C@H]2C[C@@H](n3cnc4c(Nc5ccc(N6CCN(C7CC8(CCN(C(=O)C9CCN(c%10cc%11c(cc%10F)C(=O)N([C@H]%10CCC(=O)NC%10=O)C%11=O)CC9)CC8)C7)CC6)cc5)ncnc43)C2)n1 [Compound 465, N-((1s,3s)-3-(6-((4-(4-(7-(1-(2-(2,6-dioxopiperidin-3-yl)-6-fluoro-1,3-dioxoisoindolin-5-yl)piperidin-4-carbonyl)-7-azaspiro[3.5]nonan-2-yl)piperazin-1-yl)phenyl)amino)-9H-purin-9-yl)cyclobutyl)-6-methylpicolinamide] | 0/0/0% | 0/0/0% | 0/0/0% | 50/50/50% | 50/50/50% | 50/50/50% |
| Cc1cccc(C(=O)NC2CC(n3cnc4c(Nc5ccc(N6CCN(CCC7CCN(c8cc9c(cc8F)C(=O)N([C@H]8CCC(=O)NC8=O)C9=O)CC7)CC6)cc5)ncnc43)C2)n1 (stereo partly drawn) [Compound 381, N-((1s,3s)-3-(6-((4-(4-(2-(1-(2-(2,6-dioxopiperidin-3-yl)-6-fluoro-1,3-dioxoisoindolin-5-yl)piperidin-4-yl)ethyl)piperazin-1-yl)phenyl)amino)-9H-purin-9-yl)cyclobutyl)-6-methylpicolinamide] | 0/0/0% | 0/0/0% | 0/0/0% | 30% | 20% | 20% |
| O=C1CC[C@H](N2C(=O)c3ccc(OCC(=O)N4CCC(CN5CCN(c6ccc(Nc7ncnc8c7ncn8C7CC(NC(=O)Cc8ccccc8)C7)cc6)CC5)CC4)cc3C2=O)C(=O)N1 (stereo partly drawn) [Compound 175, N-((1s,3s)-3-(6-((4-(4-((1-(2-((2-(2,6-dioxopiperidin-3-yl)-1,3-dioxoisoindolin-5-yl)oxy)acetyl)piperidin-4-yl)methyl)piperazin-1-yl)phenyl)amino)-9H-purin-9-yl)cyclobutyl)-2-phenylacetamide] | 80% | 30% | 0% | 100% | 80% | 30% |
| O=C1CC[C@H](N2C(=O)c3ccc(N4CCN(C5CC6(CCN(c7ccc(Nc8ncnc9c8ncn9[C@H]8C[C@@H](NC(=O)Cc9ccccc9)C8)cc7)CC6)C5)CC4)cc3C2=O)C(=O)N1 [Compound 335, N-((1s,3s)-3-(6-((4-(2-(4-(2-(2,6-dioxopiperidin-3-yl)-1,3-dioxoisoindolin-5-yl)piperazin-1-yl)-7-azaspiro[3.5]nonan-7-yl)phenyl)amino)-9H-purin-9-yl)cyclobutyl)-2-phenylacetamide] | 70% | 0% | 0% | 20% | 10% | 10% |
| O=C1CC[C@H](N2C(=O)c3cccc(NCC(=O)N4CCC5(CC4)CC(N4CCN(c6ccc(Nc7ncnc8c7ncn8[C@H]7C[C@@H](NC(=O)Cc8ccccc8)C7)cc6)CC4)C5)c3C2=O)C(=O)N1 [Compound 204, N-((1s,3s)-3-(6-((4-(4-(7-((2-(2,6-dioxopiperidin-3-yl)-1,3-dioxoisoindolin-4-yl)glycyl)-7-azaspiro[3.5]nonan-2-yl)piperazin-1-yl)phenyl)amino)-9H-purin-9-yl)cyclobutyl)-2-phenylacetamide] | 0/0/0% | 0/0/0% | 0/0/0% | 20/20/20% | 20/20/20% | 20/20/20% |
| O=C1CC[C@H](N2C(=O)c3cc(F)c(N4CCC(C(=O)N5CCC(CN6CCN(c7ccc(Nc8ncnc9c8ncn9[C@H]8C[C@@H](NC(=O)c9cccc(C(F)(F)F)n9)C8)cc7)CC6)CC5)CC4)cc3C2=O)C(=O)N1 [Compound 471, N-((1s,3s)-3-(6-((4-(4-((1-(1-(2-(2,6-dioxopiperidin-3-yl)-6-fluoro-1,3-dioxoisoindolin-5-yl)piperidin-4-carbonyl)piperidin-4-yl)methyl)piperazin-1-yl)phenyl)amino)-9H-purin-9-yl)cyclobutyl)-6-(trifluoromethyl)picolinamide] | 0/0/0% | 0/0/0% | 0/0/0% | 50% | 40% | 40% |
| Cc1cccc(C(=O)NC2CC(n3cnc4c(NCc5ccc(OCC6CCN(C(=O)COc7cccc8c7C(=O)N([C@H]7CCC(=O)NC7=O)C8=O)CC6)cc5)ncnc43)C2)n1 (stereo partly drawn) [Compound 107, N-((1s,3s)-3-(6-((4-((1-(2-((2-(2,6-dioxopiperidin-3-yl)-1,3-dioxoisoindolin-4-yl)oxy)acetyl)piperidin-4-yl)methoxy)benzyl)amino)-9H-purin-9-yl)cyclobutyl)-6-methylpicolinamide] | 90% | 20% | 0% | 60% | 50% | 100% |
| O=C1CC[C@@H](c2ccc(OCC(=O)N3CCC(CCCN4CCN(c5ccc(Nc6ncnc7c6ncn7[C@H]6C[C@@H](NC(=O)Cc7ccccc7)C6)cc5)CC4)CC3)cc2)C(=O)N1 [Compound 258, N-((1s,3s)-3-(6-((4-(4-(3-(1-(2-(4-(2,6-dioxopiperidin-3-yl)phenoxy)acetyl)piperidin-4-yl)propyl)piperazin-1-yl)phenyl)amino)-9H-purin-9-yl)cyclobutyl)-2-phenylacetamide] | 20% | 0% | 0% | 20/20/20% | 20/20/20% | 20/20/20% |
